“Also recorded” adds a separate entry of the source.
Tests used:
[1] = background; cited from earlier work
[2] = target: T1, HIT antibody complex (Platelet Factor 4 and antibody) (Homo sapiens, UniProt P02776)
T1 sequence (P02776 32-101): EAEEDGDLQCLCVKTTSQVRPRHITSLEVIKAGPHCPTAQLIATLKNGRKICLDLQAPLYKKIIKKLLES
Experimental: ELISA methodology was used to measure the bound antibody as measured by absorbance (at 415 nm) of the product derived from a chromogenic substrate by the enzyme on the secondary antibody probe. […] Heparin derivatives treated to reduce their anticoagulant activity (non-anticoagulant heparin (NACH) or Roneparstat (Rone)) were also tested in the HIT assay.

[3] = target: T2, Recombinant human heparanase (Homo sapiens, UniProt Q9Y251); assay: Gel-based heparanase enzyme inhibition assay, fluorescent synthetic O-sulfated heparosan substrate; assay type: biochemical
T2 construct: purchased R&D Systems; Minneapolis, MN
T2 sequence (Q9Y251 158-543 limits assumed): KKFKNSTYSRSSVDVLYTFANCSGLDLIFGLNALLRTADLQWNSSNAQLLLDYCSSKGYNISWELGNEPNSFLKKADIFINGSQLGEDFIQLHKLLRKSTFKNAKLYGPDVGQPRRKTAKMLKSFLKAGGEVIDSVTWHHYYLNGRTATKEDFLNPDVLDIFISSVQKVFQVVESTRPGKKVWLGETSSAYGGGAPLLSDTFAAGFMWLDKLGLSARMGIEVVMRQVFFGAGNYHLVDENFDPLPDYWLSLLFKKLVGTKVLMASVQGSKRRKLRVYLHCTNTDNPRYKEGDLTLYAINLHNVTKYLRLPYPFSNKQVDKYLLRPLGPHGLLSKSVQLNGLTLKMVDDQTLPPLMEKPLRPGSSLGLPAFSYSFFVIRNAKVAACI
T2 sequence (Q9Y251 36-109 limits assumed): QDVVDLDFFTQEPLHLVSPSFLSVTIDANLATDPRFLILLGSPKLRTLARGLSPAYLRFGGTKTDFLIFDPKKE
Description: (§1) A gel-based assay was used to monitor the catalytic action of recombinant human heparanase (R&D Systems; Minneapolis, MN) on polysaccharide substrates. In these assays, fluorescent chains were monitored for cleavage; the disappearance of the parental substrate band is readily noticeable. Each chain contains multiple, overlapping heparanase cut sites so there is a gradual decrease in molecular weight over time. This simple, defined assay directly monitors the digestion of polysaccharides (i.e., glycans>˜20 monosaccharide units) that approximate naturally occurring substrates.
(§2) Two types of substrates were employed to follow heparanase activity: (i) a fluorescein end-labeled synthetic O-sulfated O-linked heparosan or (ii) polyacrylamide gel electrophoretically-purified rhodamine-tagged HS. Heparanase (1.3 ng/μl final) was incubated with substrate (synthetic, 57 ng/μl; HS, 3.3 ng/μl) for various times (typically ˜0.2-5 h) in 50 mM sodium acetate, pH 5, 1 mg/ml acetylated bovine serum albumin (Promega; Madison, WI) at 30° C. Aliquots of reactions were analyzed by polyacrylamide gel electrophoresis (2 μl of reaction/lane; 20% gels, 1×TBE) and fluorescence imaging (5-120 sec exposures; ChemiDoc MP). Then the overall size range of the polysaccharide fragments was followed by Stains-All detection.

[4] = target: T2, Recombinant human heparanase; assay: Gel-based heparanase enzyme inhibition assay, natural heparan sulfate (HS) substrate; assay type: biochemical; conditions: various substrate to inhibitor ratios, 30 min time-point
Description: as §1, §2

[5] = target: T2, Recombinant human heparanase; assay: Heparanase challenge (PAGE, Stains-All detection); assay type: biochemical; conditions: heparanase 73 ng, sTestan 180 ng, 24 hours, pH 5, 30° C.
Experimental: The reactions were analyzed by polyacrylamide gel electrophoresis (20% gels, 1×TBE) and Stains-All detection.

CC(C)CCC[C@@H](C)[C@H]1CC[C@H]2[C@@H]3CC[C@H]4C[C@@H](O[C@@H]5O[C@H](COS(=O)(=O)O)[C@@H](O[C@H]6O[C@H](COS(=O)(=O)O)[C@@H](O[C@H]7O[C@H](COS(=O)(=O)O)[C@@H](O[C@H]8O[C@H](COS(=O)(=O)O)[C@@H](OS(=O)(=O)O)[C@H](OS(=O)(=O)O)[C@H]8OS(=O)(=O)O)[C@H](OS(=O)(=O)O)[C@H]7OS(=O)(=O)O)[C@H](OS(=O)(=O)O)[C@H]6OS(=O)(=O)O)[C@H](OS(=O)(=O)O)[C@H]5OS(=O)(=O)O)CC[C@]4(C)[C@H]3CC[C@]12C [PG545]
cell toxicity [1]: lacks significant anticoagulant activity and cell toxicity

Roneparstat
HIT complex reactivity (competition with plate-bound heparin) [2]: less reactive

heparin
HIT complex reactivity (competition with plate-bound heparin) [2]: competed well

sulfated or sulfonated testosteronan [sTestan]
fold more active on a molar basis than the heparosan substrate [3]: ≥ 100 fold
heparanase inhibitor potency compared with generic Roneparstat ([3]; FIG. 7): similarly potent; also recorded: potent competitive inhibitor of human heparanase similar to a known heparanase inhibitor
inhibition of heparanase cleavage of fluorescent sulfo-O-linked heparosan substrate ([3]; titration of inhibitor, 15-min time point, PAGE): inhibited the digestion of the substrate; also recorded: competitive inhibitor of heparanase
inhibition of heparanase digestion of natural HS substrate [4]: protecting natural HS from human heparanase digestion
digestion/cleavage by human heparanase [5]: recalcitrant to the action of heparanase; also recorded: recalcitrant to digestion by heparanase

Source: US20250375471A1, “HEPARANASE INHIBITORS AND METHODS OF USE” (The Board of Regents of the University of Oklahoma, priority 2022, published 2025)
